# In patent publication US7282339B2, “Competitive immunoassay” (Invitrogen Corporation, priority 2003, dated 2007):
# Several values for one entry are separate records, joined by “and”; a condition that tells them apart may be missing. Equal values may be shown once.
# How the values were obtained:
# [1] = system: P-Tyr-100 antiphosphotyrosine monoclonal antibody; assay: Ligand analog screening: fluorescence intensity and polarization vs P-Tyr-100 antibody concentration (Examples 22, 24); assay type: binding, mouse; conditions: ratio of fluorescence intensity at lowest (Fmax) to highest (Fmin) antibody concentration; 50 nM ligand analog, P-Tyr-100 0.8 to 500 nM; ex/em 480/535 nm
# Experimental: Solutions of test compounds (100 nM) were prepared were prepared in 50 mM Tris-HCl pH 7.5, 10 mM MgCl2, 0.01% Brij-35, 500 μM ATP, 2 mM DTT, 1 mM EGTA. 20 μl aliquots of these solutions were pipetted into the wells of a 384-well microplate. 20 μl aliquots of a serially-diluted […] stock solution of P-Tyr-100 antiphosphotyrosine monoclonal antibody (Cell Signaling Technology, Beverly, Mass.) were added to the wells. The resulting samples contained 50 nM of each ligand analog (Compounds 15, 7, 8, 9, 18 and 19) and antibody concentrations ranging from 0.8 to 500 nM. Fluorescence polarization and intensity of the samples was measured on an EnVision microplate reader (PerkinElmer Life Sciences) using excitation/emission filter settings of 480/535 nm. Increasing fluorescence polarization as a function of antibody concentration (A) provides confirmation of ligand analog binding to the antibody. […] Phosphotyrosine peptide, target ligand, (phospho-pp60 c-src (521-533); TSTEPQY*QPGENL, Bachem California, Inc. Torrance, Calif.) was then added to all samples at a concentration of 10 μM and the fluorescence intensity and polarization measurements were repeated (C, D). […] Displacement of the ligand analogs from antibody is confirmed by depolarization of fluorescence (D compared to A). […] See, FIG. 14.
# Compound 12 and Compound 13 were assessed for efficacy using the methods described in Example 22. […] Samples containing 100 nM of Compound 13 and additional components identified in the figure legend were prepared in 50 mM Tris-HCl pH 7.5, 10 mM MgCl2, 0.01% Brij-35, 100 μM ATP, 2 mM DTT, 1 mM EGTA. 100 μL volumes of these samples were transferred to microcuvettes. The fluorescence emission spectrum was recorded for each sample using a Hitachi F-4500 spectrofluorometer (excitation wavelength=520 nm). See, FIG. 15
# [2] = biological target: P-Tyr-100 anti-phosphotyrosine monoclonal antibody; assay: Determination of dissociation constants for antibody-ligand complexes (Example 23); assay type: binding, mouse; conditions: 1 nM test compound, P-Tyr-100 0.02 to 40 nM; fluorescence intensity, single-site saturation fit; read-out: dissociation constant
# Experimental: Solutions of Compound 15 and Compound 34 (2 nM) were prepared in 50 mM Tris-HCl pH 7.5, 10 mM MgCl2, 0.01% Brij-35, 500 μM ATP, 2 mM DTT, 1 mM EGTA, 0.5 mg/ml bovine serum albumin. 25 μl aliquots of these solutions were pipetted into the wells of a 384-well microplate. 25 μl aliquots of a serially-diluted 0.08 μM stock solution of P-Tyr-100 anti-phosphotyrosine monoclonal antibody (Cell Signaling Technology, Beverly, Mass.) were added to the wells. The resulting samples contained 1 nM test compound and antibody concentrations ranging from 0.02 to 40 nM. Fluorescence intensities of triplicate samples at each antibody concentration were measured on an EnVision microplate reader (PerkinElmer Life Sciences) using excitation/emission filter settings of 480/535 nm. The mean (n=3) fluorescence intensities were plotted against the corresponding antibody concentrations. Dissociation constants were determined from hyperbolic single-site saturation binding functions fitted to the experimental data by nonlinear regression analysis (SigmaPlot, Jandel Scientific Inc). The dissociation constants obtained were 2.0 nM for Compound 15+P-Tyr-100 and 1.7 nM for Compound 34+P-Tyr-100.
# [3] = system: P-Tyr-100 monoclonal anti-phosphotyrosine antibody; assay: Rapid displacement of the ligand analog by the target ligand, off rate (Example 13); assay type: binding, mouse; conditions: 100 nM Compound 15+100 nM P-Tyr-100; 10 μM phospho-pp60 c-src peptide added
# Experimental: A 5 mM solution of Compound 15 was prepared in water. In 150 μl kinase buffer (50 mM Tris, pH 7.5, 10 mM MgCl2, 1 mM EGTA, 0.01% Brij 35, 2 mM DTT, 100 μM ATP) a reaction was made containing 100 nM Compound 15+100 nM P-Tyr-100 monoclonal anti-phosphotyrosine antibody (Cell Signaling Technology, catalog # 9411). The fluorescence was measured over time using a Hitachi F-4500 fluorimeter (Ex 470, Em 510, slit width 5 nm for both wavelengths, PMT gain 700 V). After 15 seconds, 10 μM phospho-pp60 c-src peptide (521-533) (TSTEPQY*QPGENL) from Bachem, catalog # H-3258 was added.
# [4] = system: P-Tyr-100 monoclonal anti-phosphotyrosine antibody; assay: Competitive immunoassay with Compound 15, anti-phosphotyrosine antibody and phosphotyrosine peptide (Example 12); assay type: binding, mouse; conditions: 100 nM ligand analog + 100 nM P-Tyr-100, kinase buffer
# Experimental: A 5 mM solution of Compound 15 was prepared in water. In 150 μl kinase buffer (50 mM Tris, pH 7.5, 10 mM MgCl2, 1 mM EGTA, 0.01% Brij 35, 2 mM DTT, 100 μM ATP) several separate reactions were made containing: 1) 100 nM Compound 15; 2) 100 nM […]+100 nM P-Tyr-100 monoclonal anti-phosphotyrosine antibody (Cell Signaling Technology, catalog # 9411); 3) 100 nM Compound 15+100 nM P-Tyr-100+10 μM phospho-pp60 c-src peptide (521-533) (TSTEPQY*QPGENL) from Bachem, catalog # H-3258; 4) 100 nM Compound 15+100 nM P-Tyr-100+10 μM phospho-abl peptide (EAIY*AAPFAKKK), custom peptide MPIJ6 from Anaspec. The resulting fluorescence was measured using a Hitachi F-4500 cuvette fluorimeter using 100 μl cuvettes. The F-4500 was set on ‘emission scan’, with an excitation at 470 nm, slit width of 5 nm, emission scan from 485-650 nm, slit width 5 nm, and the PMT gain was at 700 V.
# [5] = system: Compound 15+P-Tyr-100 complex; assay: Selectivity of displacement of Compound 15 by peptides or proteins (Example 16); assay type: binding, mouse; conditions: peptides or proteins serially diluted from 80 μM
# Experimental: A 5 mM solution of Compound 15 was prepared in water. In kinase buffer (50 mM Tris, pH 7.5, 10 mM MgCl2, 1 mM EGTA, 0.01% Brij 35, 2 mM DTT, 100 μM ATP) 80 μM solutions of six different peptides or proteins were made: 1) phospho-pp60 c-src peptide (521-533) (TSTEPQY*QPGENL) (Bachem, catalog # H-3258); 2) non-phospho-pp60 c-src peptide (521-533) (TSTEPQYQPGENL) (Bachem, catalog # H-3256); 3) phospho-DSIP peptide (WAGGDAS*GE) (SynPep, catalog # 3920); 4) phospho-RRA(pT)VA peptide (RRAT*VA) (Sigma, catalog V248A); 5) beta-casein (Sigma, catalog # C6905); 6) bovine serum albumin (Sigma, catalog # A7284). These peptides or proteins were serially diluted 2-fold in 20 μl in a 0.025% Mowiol-blocked 384-well black Packard OptiPlate. 20 μl of a 2× mix of 50 nM of Compound 15+100 nM P-Tyr-100 (Cell Signaling Technology, catalog # 9411) complex in kinase buffer was added to the wells. The fluorescence intensity was measured on an EnVision microplate reader (Perkin Elmer), PMT 1 gain 155, PMT 2 gain 183, excitation light 60%, 100 flashes at 9 mM height.
# [6] = system: P-Tyr-100 mouse monoclonal anti-phosphotyrosine antibody; assay: Efficacy of secondary antibody labels as FRET acceptors (Example 27); assay type: binding
# Experimental: Solutions containing (A) 100 nM phosphotyramide ligand analog, (B) 100 nM phosphotyramide ligand analog complexed with 100 nM P-Tyr-100 mouse monoclonal anti-phosphotyrosine antibody and (C) 100 nM phosphotyramide ligand analog complexed with 100 nM P-Tyr-100 anti-phosphotyrosine antibody and 600 nM Fab fragments of goat anti-mouse IgG were prepared in 50 mM Tris-HC1, pH 7.5. Corresponding sets for solutions were prepared for Fab fragments labeled with three different dyes and an unlabeled control. Fluorescence intensities at 510 nm (excitation at 450 nm) were measured on a Hitachi F-4500 spectrofluorometer and were expressed as percentages of the intensity of the free phosphotyramide ligand sample (Table 5). […] Addition of a labeled secondary antibody produced a further decrease in intensity only in the case of the Alexa Fluor 555 labeling dye, which has spectral characteristics that are consistent with efficient fluorescence resonance energy transfer from the BODIPY FL phosphotyramide ligand (Compound 16).
# [7] = system: p-Tyr-100 antibody; assay: Screening of phosphotyrosine ligand-binding antibodies with Compound 16 (Example 20); set-up: species or system mouse; conditions: compared with p-Tyr-69, p-Tyr-20 and 4G10 antibodies; 50 nM Compound 16
# Experimental: A 4 mM stock of Compound 16 was made in 16% (v/v) DMSO. Three different antibodies were diluted to 1 μM in 50 mM MOPS, pH 7.2:1) p-Tyr-100 antibody (Cell Signaling Technology, catalog # 9411); 2) p-Tyr-69 antibody (BD Transduction Labs, catalog # 610430); 3) p-Tyr-20 antibody (BD Transduction Labs, catalog # 610000). A fourth antibody, the 4G10 antibody (Upstate Biotechnology, catalog # 05-321), was diluted to 400 nM in MOPS buffer. The antibodies were serially diluted in a microplate in 25 μl 50 mM MOPS, pH 7.2, buffer. 25 μl 100 nM Compound 16 in MOPS buffer was added to all wells. The fluorescence intensity was measured on an EnVision microplate reader (Perkin Elmer), PMT 1 gain 155, PMT 2 gain 187, excitation light 53%, 100 flashes at 9 mM height.
# [8] = system: P-Tyr-100 monoclonal anti-phosphotyrosine antibody; assay: Z′ factor of displacement assay with Compound 34 (Example 14); assay type: binding, mouse; conditions: Compound 34+P-Tyr-100 complex, phospho-pp60 c-src peptide
# Experimental: A 2 mM solution of Compound 34 was prepared in water. Two working stocks were prepared in kinase buffer (50 mM Tris, pH 7.5, 10 mM MgCl2, 1 mM EGTA, 0.01% Brij 35, 2 mM DTT, 100 μM ATP): 1) 50 nM of Compound 34+100 nM P-Tyr-100 monoclonal anti-phosphotyrosine antibody (Cell Signaling Technology, catalog # 9411); 2) 100 μM phospho-pp60 c-src peptide (521-533) (TSTEPQY*QPGENL) from Bachem, catalog # H-3258. In two 384-well microplates, […] of the 50 nM Compound 34+100 nM P-Tyr-100 complex was added to 96 wells in each plate. To the same wells, 25 μl of either kinase buffer alone (48 wells each plate) or the 100 μM phospho-pp60 c-src peptide in kinase buffer (48 wells each plate) was added. The fluorescence was measured in a Victor^2 microplate reader (Wallac), 1 read/well for 0.2 sec each at 30000V gain, excitation 485+/−17.5 nm, emission 535+/−12.5 nm.
# The Z′ statistic was calculated using equation 5 from Zhang, J.-H., Chung, T., D., Y., and Oldenburg, K. R. (1999) A simple statistical parameter for use in evaluation and validation of high throughput screening assays. J. Biomol. Screen. 4, 67-73. […] In other words, there is a 4-fold increase in fluorescent signal after the ligand analog is displaced by the phosphorylated peptide. See, FIG. 6.
molecule,measurement,setting,value
"O=C(NCCc1ccc(OP(=O)(O)O)cc1)c1ccc(C(=O)O)c(-c2c3cc(F)c(=O)cc-3oc3cc(O)c(F)cc23)c1 [Compound 15, Oregon Green 488 6-phosphotyramide]",Fmax/Fmin,[1],5.4
same,Kd,[2],2 nM
same,off rate,[3],0.14 s⁻¹
same,quenching of the reporter molecule on addition of P-Tyr-100 antibody,[4],significantly quenched
TSTEPQY*QPGENL [phospho-pp60 c-src peptide],displacement of the ligand analog (Compound 15),[5],significantly displaces
BODIPY FL phosphotyramide [Compound 16],"fluorescence intensity at 510 nm, Sample C","[6]; 100 nM Compound 16 + 100 nM P-Tyr-100 + 600 nM Fab labeled Alexa Fluor 555 (DOS 3.8), percentages of Sample A",36 percentages
same,"fluorescence intensity at 510 nm, Sample C","[6]; 100 nM Compound 16 + 100 nM P-Tyr-100 + 600 nM Fab labeled Alexa Fluor 594 (DOS 2.5), percentages of Sample A",48 percentages
same,"fluorescence intensity at 510 nm, Sample C","[6]; 100 nM Compound 16 + 100 nM P-Tyr-100 + 600 nM Fab labeled Alexa Fluor 647 (DOS 2.8), percentages of Sample A",47 percentages
same,"fluorescence intensity at 510 nm, Sample C","[6]; 100 nM Compound 16 + 100 nM P-Tyr-100 + 600 nM Fab, Unlabeled, percentages of Sample A",51 percentages
same,"fluorescence intensity at 510 nm, Sample B","[6]; 100 nM Compound 16 + 100 nM P-Tyr-100, percentages of Sample A, excitation 450 nm",49 percentages and 51 percentages and 53 percentages
same,"fluorescence intensity at 510 nm, Sample A","[6]; 100 nM Compound 16 alone, reference set to 100, excitation 450 nm",100 percentages
same,decrease of fluorescence intensity on binding to the P-Tyr-100 antibody,[6]; 100 nM ligand analog + 100 nM P-Tyr-100,approximately 50%
same,affinity of antibody for the ligand analog,[7],highest affinity
NC(=O)C(Cc1ccc(OP(=O)(O)O)cc1)NC(=O)c1ccc(C(=O)O)c(-c2c3cc(F)c(=O)cc-3oc3cc(O)c(F)cc23)c1 (stereo not drawn) [Compound 34],Kd,[2],1.7 nM
same,increase in fluorescent signal after the ligand analog is displaced by the phosphorylated peptide,[8],4 fold
